A value given as a limit tells only on which side of the number the result lay.

T1 sequence (P00742 235-488 limits assumed): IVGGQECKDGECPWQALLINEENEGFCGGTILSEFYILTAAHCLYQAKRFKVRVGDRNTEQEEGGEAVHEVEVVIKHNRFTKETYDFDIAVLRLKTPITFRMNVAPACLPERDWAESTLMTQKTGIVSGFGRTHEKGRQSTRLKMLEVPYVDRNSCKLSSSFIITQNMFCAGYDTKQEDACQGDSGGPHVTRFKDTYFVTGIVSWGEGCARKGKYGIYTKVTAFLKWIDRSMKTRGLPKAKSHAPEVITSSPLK
T1 sequence (P00742 41-179 partner limits assumed): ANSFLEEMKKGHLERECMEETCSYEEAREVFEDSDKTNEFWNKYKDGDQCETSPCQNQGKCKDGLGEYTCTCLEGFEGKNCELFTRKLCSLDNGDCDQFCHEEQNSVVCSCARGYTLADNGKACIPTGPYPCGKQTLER

The test addresses T1, human plasma protein factor Xa (Homo sapiens, UniProt P00742).
T1 construct: measure proteolytic activity of the enzyme (factor Xa) by following cleavage of paranitroanilide substrate; purchased Haematologic Technologies (Essex Junction, Vt.); host or cells: human plasma
In words: Factor Xa IC50 determination (cleavage of paranitroanilide substrate S-2765). It is filed as biochemical. The conditions noted are these: fXa 1 nM, S2765 100 μM, Tris buffered saline pH 7.4, room temperature. As for the experimental part: An in vitro assay for detecting and measuring inhibition activity against Factor Xa is as follows:
The substrate S-2765 (Z-D-Arg-Gly-Arg-pNA.HCl) was obtained from Diapharma (West Chester, Ohio).
The human plasma protein factor Xa was purchased from Haematologic Technologies (Essex Junction, Vt.).
All assays, which are performed in 96-well microtiter plates, measure proteolytic activity of the enzyme (factor Xa) by following cleavage of paranitroanilide substrate. The assay buffer used for proteolytic assays was Tris buffered saline (20 mM Tris, 150 mM NaCl, 5 mM CaCl2, 0.1% Bovine serum albumin (BSA), 5% Dimethly Sulfoxide (DMSO) pH 7.4). In a 96-well microtiter plate, inhibitor was serially diluted to give a range of concentrations from 0.01 nM to 10 μM (final). Duplicate sets of wells were assayed and control wells without inhibitor were included. Enzyme was added to each well, (fXa concentration=1 nM), the plate was shaken for 5 seconds and then incubated for 5 minutes at room temperature. S2765 was added (100 μM final) and the plate was shaken for 5 seconds (final liquid volume in each well was 200 μl). The degree of substrate hydrolysis was measured at 405 nm on a Thermomax plate reader (Molecular Devices, Sunnyvale, Calif.) for 2 minutes. The initial velocities (mOD/min), for each range of inhibitor concentrations, were fitted to a four parameter equation using Softmax data analysis software. The parameter C, derived from the resulting curve-fit, corresponded to the concentration for half maximal inhibition (IC50).
One may read the IC50 as the concentration that gives 50% inhibition. Compound `CN1CCN=C1c1ccc(NC(=O)C(NC(=S)Nc2ccc(Br)cc2)c2ccccc2)cc1` (stereo not drawn) [Example 9, N-[4-(1-methyl-4,5-dihydro-1H-imidazol-2-yl)phenyl]-2-phenyl-2-(4-bromophenylaminothiocarbonylamino)-acetamide] had an IC50 not above 100 nM. Then `N=C(c1ccc(NC(=O)[C@@H](NC(=S)Nc2ccc(Br)cc2)c2ccccc2)cc1)N1CCCC1` [Example 13, (S) N-[4-(pyrrolidinylimino)phenyl]-2-phenyl-2-(4-bromophenylaminothiocarbonylamino)-acetamide], with not above 100 nM; and `CN1CCC(C2CCN(C(=O)[C@H](NC(=S)Nc3ccc(Cl)cc3)c3ccccc3)CC2)CC1` [Example 37, (2R) 4-(1-methylpiperidin-4-yl)piperidin-1-yl-2-phenyl-2-(4-chlorophenylaminothiocarbonylamino)-acetamide], with not below 500 nM. Then `N=C(c1ccc(NC(=O)[C@@H](NC(=S)Nc2ccc(Br)cc2OC(F)(F)F)c2ccccc2)cc1)N1CCCC1` [Example 18], with not below 500 nM; and `O=C(Nc1ccc(N2CCOCC2=O)cc1)C(NC(=S)Nc1ccc(Cl)cc1)c1ccccc1` (stereo not drawn) [Example 25, N-[4-(3-oxo-morpholin-4-yl)phenyl]-2-phenyl-2-(4-chlorophenylaminothiocarbonylamino)-acetamide], with not above 100 nM; and `N=C(c1ccc(NC(=O)[C@@H](NC(=S)Nc2ccc(Cl)cc2)c2ccccc2)cc1)N1CCCC1` [Example 16], with not above 100 nM. In the case of `N=C(c1ccc(NC(=O)[C@@H](NC(=S)Nc2ccc(Br)cc2)c2ccccc2)cc1)N1CCCCCC1` [Example 15], the IC50 is not above 100 nM. Then `Cc1cc2cc(NC(=S)NCC(=O)Nc3ccc(C(=N)N(C)C)cc3)ccc2o1` [Example 1, N-[4-(dimethylaminoimino)phenyl]-2-[(2-methylbenzo[b]furan-5-yl)aminothiocarbonylamino]-acetamide], with not below 500 nM. Then `Cc1cc2cc(NC(=S)NCC(=O)Nc3ccc(C4=NCCN4C)cc3)ccc2o1` [Example 2, N-[4-(1-methyl-4,5-dihydro-1H-imidazol-2-yl)phenyl]-2-[(2-methylbenzo[b)furan-5-yl)aminothiocarbonylamino]-acetamide], with not below 500 nM; and `N=C(c1ccc(NC(=O)C(NC(=S)Nc2ccc(Br)cc2)c2ccccc2)cc1)N1CCCC1` (stereo not drawn) [Example 5], with not above 100 nM.

Consider `COCCN(C)C(=N)c1ccc(NC(=O)C(NC(=S)Nc2ccc(Br)cc2)c2ccccc2)cc1` (stereo not drawn) [Example 7, N-{4-[(N-methyl-N-2-methoxyethyl)aminoimino]phenyl}-2-phenyl-2-(4-bromophenylaminothiocarbonylamino)-acetamide], for which the IC50 was not above 100 nM.

For `NS(=O)(=O)c1ccccc1-c1ccc(NC(=O)C(NC(=S)Nc2ccc(Br)cc2)c2ccccc2)cc1` (stereo not drawn) [Example 29, N-[4-(2-aminosulfonylphenyl)phenyl]-2-phenyl-2-[(4-bromophenyl)aminothiocarbonylamino]-acetamide], the IC50 was not above 100 nM. Under `NS(=O)(=O)c1ccccc1-c1ccc(NC(=O)C(NC(=S)Nc2ccc(Cl)cc2)c2ccccc2)cc1` (stereo in doubt) [Example 33, (R) N-[4-(2-aminosulfonylphenyl)phenyl]-2-phenyl-2-(4-chlorophenylaminothiocarbonylamino)-acetamide] stands not above 100 nM; under `CN1CCC(N2CCN(C(=O)[C@H](NC(=S)Nc3ccc(Cl)cc3)c3ccccc3)CC2)CC1` [Example 27], not above 100 nM; under `O=C(Nc1ccc(-n2ccccc2=O)cc1)[C@H](NC(=S)Nc1ccc(Cl)cc1)c1ccccc1` [Example 35, (2R) N-[4-(2-pyridon-1-yl)phenyl]-2-phenyl-2-(4-chlorophenylaminothiocarbonylamino)-acetamide], not above 100 nM.

As for `N=C(c1ccc(NC(=O)[C@@H](NC(=S)Nc2c(Br)cc(Br)cc2Br)c2ccccc2)cc1)N1CCCC1` [Example 23], the IC50 is not below 500 nM. As for `N=C(c1ccc(NC(=O)[C@@H](NC(=S)Nc2ccc(Cl)cc2Cl)c2ccccc2)cc1)N1CCCC1` [Example 20], the IC50 is not below 500 nM. Under `CN1CCC(N2CCN(C(=O)[C@@H](NC(=S)Nc3ccc(Cl)cc3)c3ccccc3)CC2)CC1` [Example 26] stands not above 100 nM; under `C#Cc1ccc(NC(=S)NC(C(=O)Nc2ccc(C(=N)N3CCCC3)cc2)c2ccccc2)cc1` (stereo not drawn) [Example 11], not above 100 nM; under `N=C(c1ccc(NC(=O)C(NC(=S)Nc2ccc(Br)cc2)c2ccccc2)cc1)N1CCC1` (stereo not drawn) [Example 6], not above 100 nM. `O=C(Nc1ccc(-n2ccccc2=O)cc1)[C@@H](NC(=S)Nc1ccc(Cl)cc1)c1ccccc1` [Example 34, (2S) N-[4-(2-pyridon-1-yl)phenyl]-2-phenyl-2-(4-chlorophenylaminothiocarbonylamino)-acetamide] yielded an IC50 not above 100 nM.

Consider `CC(C)C(NC(=S)Nc1ccc(Cl)cc1)C(=O)Nc1ccc(C2=NCCN2C)cc1` (stereo not drawn) [Example 24, N-[4-(1-methyl-4,5-dihydro-1H-imidazol-2-yl)phenyl]-2-isopropyl-2-(4-chlorophenylaminothiocarbonylamino]-acetamide], for which the concentration for half-maximal inhibition (IC50) was not above 100 nM. Then `Cc1cc2cc(NC(=S)N[C@@H](CC(C)C)C(=O)Nc3ccc(C(=N)N(C)C)cc3)ccc2o1` [Example 3], with not below 500 nM; and `N=C(c1ccc(NC(=O)C(NC(=S)Nc2ccc(F)cc2)c2ccccc2)cc1)N1CCCC1` (stereo not drawn) [Example 10], with not above 100 nM. Then `Cc1cc2cc(NC(=S)NC(C(=O)Nc3ccc(-c4ccccc4S(N)(=O)=O)cc3)c3ccccc3)ccc2o1` (stereo not drawn) [Example 28, N-[4-(2-aminosulfonylphenyl)phenyl]-2-phenyl-2-[(2-methylbenzo[b]furan-5-yl)aminothiocarbonylamino]-acetamide], with not above 100 nM.

For the compound `CCOC(=O)C1CCN(C(=N)c2ccc(NC(=O)C(NC(=S)Nc3ccc(Br)cc3)c3ccccc3)cc2)CC1` (stereo not drawn) [Example 8], the IC50 was not below 500 nM. Under `O=C(Nc1ccc(-n2ccccc2=O)cc1F)[C@H](NC(=S)Nc1ccc(Cl)cc1)c1ccccc1` [Example 36, (2R) N-[4-(2-pyridon-1-yl)-2-fluorophenyl]-2-phenyl-2-(4-chlorophenylaminothiocarbonylamino)-acetamide] stands not above 100 nM. For the compound `NS(=O)(=O)c1ccccc1-c1ccc(NC(=O)C(NC(=S)Nc2ccc(Cl)cc2)c2ccccc2)cc1` (stereo in doubt) [Example 32, (S) N-[4-(2-aminosulfonylphenyl)phenyl]-2-phenyl-2-(4-chlorophenylaminothiocarbonylamino)-acetamide], the IC50 lay in the range of 100 to 500 nM. Under `N=C(c1ccc(NC(=O)[C@@H](NC(=S)Nc2ccc(Br)cc2)c2ccccc2)cc1)N1CCCCC1` [Example 14, (S) N-[4-(piperidinylimino)phenyl]-2-phenyl-2-(4-bromophenylaminothiocarbonylamino)-acetamide] stands 100 to 500 nM; under `Cc1cc(Br)ccc1NC(=S)N[C@H](C(=O)Nc1ccc(C(=N)N2CCCC2)cc1)c1ccccc1` [Example 19], not below 500 nM; under `NS(=O)(=O)c1ccccc1-c1ccc(NC(=O)[C@H](NC(=S)Nc2ccc(Br)cn2)c2ccccc2)cc1` [Example 31, (R) N-[4-(2-aminosulfonylphenyl)phenyl]-2-phenyl-2-(5-bromopyridin-2-ylaminothiocarbonylamino)-acetamide], 100 to 500 nM. Under `N=C(c1ccc(NC(=O)[C@@H](NC(=S)Nc2ccc(Br)cc2F)c2ccccc2)cc1)N1CCCC1` [Example 17] stands not below 500 nM; under `N=C(c1ccc(NC(=O)[C@@H](NC(=S)Nc2ccc(Br)cc2C(F)(F)F)c2ccccc2)cc1)N1CCCC1` [Example 22], not below 500 nM. Under `CN(C)C(=N)c1ccc(NC(=O)C(NC(=S)Nc2ccc(Br)cc2)c2ccccc2)cc1` (stereo not drawn) [Example 4, N-[4-(dimethylaminoimino)phenyl]-2-phenyl-2-(4-bromophenylaminothiocarbonylamino)-acetamide] stands not above 100 nM; under `NS(=O)(=O)c1ccccc1-c1ccc(NC(=O)[C@@H](NC(=S)Nc2ccc(Br)cn2)c2ccccc2)cc1` [Example 30, (S) N-[4-(2-aminosulfonylphenyl)phenyl]-2-phenyl-2-(5-bromopyridin-2-ylaminothiocarbonylamino)-acetamide], not above 100 nM; under `N=C(c1ccc(NC(=O)[C@@H](NC(=S)Nc2ccc(Br)c(Cl)c2)c2ccccc2)cc1)N1CCCC1` [Example 21, (S) N-[4-(pyrrolidinylimino)phenyl]-2-phenyl-2-(3-chloro-4-bromophenylaminothiocarbonylamino)-acetamide], not below 500 nM.

For the origin of these results see patent publication US20060160790A1, “Thioureas as factor Xa inhibitors” (Portola Pharmaceuticals, Inc., priority 2004, published 2006).
